Structures can show the parent of a compound that is named as a salt.
Test system: Overweight and obese adults
Test: Phase 1 blinded, placebo-controlled, dose-ranging clinical study (NCT02475317), fecal bile acid excretion
Method: Participants consumed a low-fiber diet (<10 mg/day) for 2 days before randomization and during the 7-day treatment period. Measurements were taken of fBA, sBA concentration, and serum 7αC4 concentration (which is a biomarker of bile acid synthesis) prior to drug administration and at day 7.

For `CCCC[C@]1(CC)CS(=O)(=O)c2ccc(N(C)C)cc2[C@@H](c2cccc(NC(=O)N[C@@H]3O[C@H](COS(=O)(=O)O)[C@@H](O)[C@H](OCc4ccccc4)[C@H]3O)c2)[C@H]1O` [volixibat, (2R,3R,4S,5R,6R)-4-benzyloxy-6-{3-[3-((3S,4R,5R)-3-butyl-7-dimethylamino-3-ethyl-4-hydroxy-1,1-dioxo-2,3,4,5-tetrahydro-1H-benzo[b]thiepin-5-yl)-phenyl]-ureido}-3,5-dihydroxy-tetrahydro-pyran-2-ylmethyl) hydrogen sulfate], the “Mean sBA levels” value (7 days) was “not elevated”, the fBA excretion (across doses) was “increased in a dose-dependent manner” and the “treatment-emergent adverse events occurring in over 10% of participants” value (all doses) was “headache and diarrhea”. For the same compound, the “treatment-emergent adverse events, severity” value (all doses) was “mild, and none were serious” and the “Mean serum 7αC4” value (baseline to day 7) was “increased”.
